Test results reported in US20240002441A1, “PEPTIDES AND USES THEREOF IN MODULATION OF AMYLOID-BETA PROTEIN DEGRADING PROTEASES” (priority 2020, published 2024).

Assays:
NEP = target: T1, NEP (Homo sapiens, UniProt P08473); assay: NEP enzyme kinetics study with QFS (Example 5); type: biochemical; conditions: NEP QFS 0-120 μM; pre-incubation 1 h at 37° C.
T1 construct: purchased R & D systems 1182-ZNC-010
Procedure: Plate reader-based enzyme assays were performed using a quenched fluorescent substrate (QFS) in a 96-well format using a SpectraMAX M4 Microplate reader (Molecular Devices). The increase in fluorescence following addition of QFS (40 μM) was taken as evidence of enzyme activity. Fluorescence was monitored over 2 h at 37° C. using κEx=320 nm and λEm=405 nm. Assays were conducted in black 96-well plates. Specific enzyme activity was expressed as a rate of substrate cleavage calculated using a standard curve of 7-methoxy-coumarin-4-acetic acid.
In all plate reader-based enzyme assays using QFS, the reaction rate (μmol of substrate cleaved/min) was calculated using linear regression analysis (GraphPad Prism software version 8.01). The reaction rates calculated were used to generate the enzyme kinetic parameters Vmax and Km through non-linear regression analysis (GraphPad Prism software, version 8.01; Michaelis-Menten equation). Where indicated, enzyme activity in the presence of peptide was expressed as a % of the enzyme alone. Data were expressed as mean±SEM and statistical significance was determined using t-tests or one-way ANOVAs followed by Tukey's post-hoc test. P<0.05 was considered as statistically significant. In all assays conducted using 96-well plates, the reaction mixtures in each well were considered an independent experiment. […]

EA.hy926 cells = assay: Peptide stability study in EA.hy926 endothelial cells, LCMS (Example 4); type: in vitro ADME; conditions: peptide 9 μM, Opti-MEM
Procedure: SEQ ID NO:2 was prepared as a C-terminal amidated analogue of SEQ ID NO:1. The stability of SEQ ID NO:1 and SEQ ID NO:2 was assessed in HEK293 and EA.hy926 cells grown in culture and their break down was monitored by LCMS over 60 min using the following procedure.
HEK293 (passage 24) or Ea.hy926 (passage 37) were seeded into tissue-culture-grade 96-well plates at a density of 20,000 cells/well. After 24 hr, cells were washed with PBS and replaced with Opti-MEM reduced serum media containing SEQ ID NO:1 or SEQ ID NO:2 (9 μM). Aliquots of equal volume were taken at T=0 and 60 min. SEQ ID NO:2 was added to control wells having media (no cells) only. Samples were immediately acidified in 0.1% TFA, snap frozen in dry ice and stored in −80° C. until analysed by LCMS.
Samples were analyzed by LC-MS/MS on a Shimadzu Nexera uHPLC (Japan) coupled to a Triple Tof 5600 mass spectrometer (ABSCIEX, Canada) equipped with a duo electrospray ion source. One μL of each extract was injected onto a 2.1 mm×100 mm Zorbax C18 1.8 um column (Agilent) at 200 μL/min. […] SEQ ID NO:1 and SEQ ID NO:2 were quantified using the […] doubly charged molecular ion from m/z 510.270 to 510.325. The data was acquired using Analyst TF 1.6 and quantification was carried out using MultiQuant 2.1.1 software (ABSCIEX, Canada).

STZ diabetic mouse model = assay: STZ diabetic mouse model, kidney inflammation and fibrosis, ND and STZ mice (Example 14); type: in vivo; conditions: for post treatment blood glucose compared with vehicle: 1 mg/kg s.c. osmotic minipump
Procedure: Mice were divided into four groups, two groups of mice remained untreated (ND) and two groups of mice were treated with STZ (150 mg/kg) by i.p. injection 1 week before starting treatment with SEQ ID NO. 2 or vehicle. Before treatment with SEQ ID NO. 2 or vehicle began, one week post STZ administration, 24 hour urine and blood samples were taken and blood glucose was assessed in all mice. The two ND groups and the two STZ treatment groups were then treated with either vehicle (10% DMSO/PBS) only or SEQ ID NO: 2 (1 mg/kg) subcutaneously by osmotic minipump. The mice were then monitored for 3 months before sacrifice. Monitoring included assessing the weight of each animal every day, taking blood samples biweekly and 24 hour urine samples at 1, 2 and 3 months post treatment. 24 hour urine samples were collected from mice placed in metabolic cages. At 3 months after treatment, a blood sample was collected (cardiac bleed) and the animals were sacrificed. Kidney and heart tissues were collected and weight and the tissues processed for in vitro analysis.
Urine samples were analysed for urinary albumin ELISA. The volume of urine was measured and then samples were diluted by 1:8000 with water. The samples were incubated for 1 h in antibody-coated 96-well plates (in duplicate). After incubation, a Development solution (100 μL) containing sandwich antibody was added to the wells and the samples incubated for 10 minutes in the dark. Stop solution (100 μL) was added and the optical density was measured at 450 nm.
The kidney tissue samples were analysed for fibrosis using Masson's trichrome staining. 4 μm-thick paraffin-embedded kidneys were sectioned. After dewaxing, sections were post-fixed in Bouin's fixative overnight. The slides were stained in Weigert's iron haematoxylin followed by Biebrich scarlet-acid fuchsin solution. The slides were differentiated in phosphomolybdic-phosphotungstic acid solution and then further stained in aniline blue solution. After differentiation in 1% acetic acid solution the slides were mounted with mounting medium and the sections were imaged on an Aperio Slide Scanner at ×20 magnification. The images were analysed on ImageJ.
Kidney samples in mice sacrificed one month after treatment were also analysed for the presence of IL-6 by western blot analysis. Homogenised kidney samples were heat-denatured and separated using SDS-PAGE. The membranes were incubated with IL-6 primary antibody at 1:500 dilution, followed by incubation with a secondary antibody (goad anti-rabbit antibody at 1:16000) and developed the following day using enhanced chemiluminescence (ECL) as a substrate. β-actin was used as a loading control.

T1 sequence (P08473 whole entry): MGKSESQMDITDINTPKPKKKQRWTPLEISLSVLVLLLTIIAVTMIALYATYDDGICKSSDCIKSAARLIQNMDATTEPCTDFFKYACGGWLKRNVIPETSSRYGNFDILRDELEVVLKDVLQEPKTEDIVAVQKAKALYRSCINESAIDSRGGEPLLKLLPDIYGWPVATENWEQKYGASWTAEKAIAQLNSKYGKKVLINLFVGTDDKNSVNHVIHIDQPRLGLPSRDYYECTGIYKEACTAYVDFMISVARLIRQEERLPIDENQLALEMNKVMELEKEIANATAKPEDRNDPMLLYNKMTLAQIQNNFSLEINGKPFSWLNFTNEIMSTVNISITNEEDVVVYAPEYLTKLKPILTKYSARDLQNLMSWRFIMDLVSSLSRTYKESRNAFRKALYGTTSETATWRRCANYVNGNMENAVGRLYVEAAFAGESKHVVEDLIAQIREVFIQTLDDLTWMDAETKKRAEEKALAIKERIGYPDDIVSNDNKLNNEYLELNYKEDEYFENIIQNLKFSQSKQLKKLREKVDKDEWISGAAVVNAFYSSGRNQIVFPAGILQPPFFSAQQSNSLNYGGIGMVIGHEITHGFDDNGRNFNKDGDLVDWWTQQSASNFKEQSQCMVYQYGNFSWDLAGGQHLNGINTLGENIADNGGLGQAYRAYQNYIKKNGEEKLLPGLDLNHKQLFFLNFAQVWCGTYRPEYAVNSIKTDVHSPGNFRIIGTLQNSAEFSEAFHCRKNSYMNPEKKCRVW

## H-SLFELGKMIL-NH2 [SEQ ID NO:2, H2N-SLFELGKMIL-NH2]
NEP
  vmax of rhNEP in the presence of peptide: 0.035±0.002 μmol substrate cleaved/min
EA.hy926 cells
  relative amount remaining in the medium of endothelial cells at 60 min: 26%±5%
STZ diabetic mouse model; ND mice
  post treatment blood glucose compared with vehicle: similar
STZ diabetic mouse model; ND mice, before and after treatment
  urine volume per day: the same before or after treatment
STZ diabetic mouse model; ND mice, peptide or vehicle
  kidney:bodyweight ratio: remained the same
  urinary albumin: remained the same
STZ diabetic mouse model; STZ mice
  kidney:bodyweight ratio, increase compared with STZ mice treated with vehicle: even more
  post treatment blood glucose compared with vehicle: marginally lower
STZ diabetic mouse model; STZ mice sacrificed one month after treatment, western blot
  kidney IL-6 expression compared with vehicle treated STZ mice: lower
STZ diabetic mouse model; STZ mice, 2 and 3 months post treatment, with either vehicle or peptide
  urinary albumin: increased
STZ diabetic mouse model; STZ mice, Masson's trichrome staining
  renal cortical fibrosis compared to STZ mice treated with vehicle: tendency to be lower
STZ diabetic mouse model; STZ mice, whether treated with peptide or vehicle
  urine volume per day: increased urine volume per day
